{"source": "PubChem BioAssay (NCI)", "assay_in_all_cases": "DTP human tumour cell line panel, 48 h", "key": {"RXF 393 renal": {"test_system": "RXF 393 renal"}, "NCI-H23 lung": {"test_system": "NCI-H23 lung"}, "TK-10 renal": {"test_system": "TK-10 renal"}, "IGROV1 ovarian": {"test_system": "IGROV1 ovarian"}, "SF-295 CNS": {"test_system": "SF-295 CNS"}, "LOX IMVI melanoma": {"test_system": "LOX IMVI melanoma"}, "HOP-62 NSCLC": {"test_system": "HOP-62 NSCLC"}, "HCT-15 colon": {"test_system": "HCT-15 colon"}, "SK-OV-3 ovarian": {"test_system": "SK-OV-3 ovarian"}, "MDA-MB-231 breast": {"test_system": "MDA-MB-231 breast"}, "NCI-H226 lung": {"test_system": "NCI-H226 lung"}, "CAKI-1 renal": {"test_system": "CAKI-1 renal"}, "UO-31 renal": {"test_system": "UO-31 renal"}, "SK-MEL-5 melanoma": {"test_system": "SK-MEL-5 melanoma"}, "MDA-MB-435": {"test_system": "MDA-MB-435"}, "NCI-H522 lung": {"test_system": "NCI-H522 lung"}, "HCT-116 colon": {"test_system": "HCT-116 colon"}, "COLO 205 colon": {"test_system": "COLO 205 colon"}, "OVCAR-3 ovarian": {"test_system": "OVCAR-3 ovarian"}, "SR leukemia": {"test_system": "SR leukemia"}, "786-0 renal": {"test_system": "786-0 renal"}, "U251 CNS": {"test_system": "U251 CNS"}, "SW-620 colon": {"test_system": "SW-620 colon"}, "A549 NSCLC": {"test_system": "A549 NSCLC"}, "HS 578T breast": {"test_system": "HS 578T breast"}, "M14 melanoma": {"test_system": "M14 melanoma"}, "HT29 colon": {"test_system": "HT29 colon"}}, "note": "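Test compounds were applied to cells in 96-well plates for 48 hours at 5 doses. GI50 is the concentration that inhibits growth by half. TGI is the concentration that stops growth completely.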", "data": [{"smiles": "CC1(C)Cc2cccc(OCC(O)CN3CCN(c4ccc(F)cc4)CC3)c2O1", "note": "(centres undefined)", "values": [{"measurement": "GI50", "setting": "RXF 393 renal", "result": 8.33, "unit": "µM"}, {"measurement": "TGI", "setting": "RXF 393 renal", "result": 22.6, "unit": "µM"}, {"measurement": "GI50", "setting": "NCI-H23 lung", "result": 19.1, "unit": "µM"}, {"measurement": "TGI", "setting": "NCI-H23 lung", "result": "> 50", "unit": "µM"}, {"measurement": "GI50", "setting": "TK-10 renal", "result": "> 50", "unit": "µM"}, {"measurement": "TGI", "setting": "TK-10 renal", "result": "> 50", "unit": "µM"}, {"measurement": "GI50", "setting": "IGROV1 ovarian", "result": 20, "unit": "µM"}, {"measurement": "TGI", "setting": "IGROV1 ovarian", "result": "> 50", "unit": "µM"}, {"measurement": "GI50", "setting": "SF-295 CNS", "result": 8.83, "unit": "µM"}, {"measurement": "TGI", "setting": "SF-295 CNS", "result": 39.9, "unit": "µM"}, {"measurement": "GI50", "setting": "LOX IMVI melanoma", "result": 23.8, "unit": "µM"}, {"measurement": "TGI", "setting": "LOX IMVI melanoma", "result": "> 50", "unit": "µM"}, {"measurement": "GI50", "setting": "HOP-62 NSCLC", "result": 21.9, "unit": "µM"}, {"measurement": "TGI", "setting": "HOP-62 NSCLC", "result": "> 50", "unit": "µM"}, {"measurement": "GI50", "setting": "HCT-15 colon", "result": 13.5, "unit": "µM"}, {"measurement": "TGI", "setting": "HCT-15 colon", "result": "> 50", "unit": "µM"}, {"measurement": "GI50", "setting": "SK-OV-3 ovarian", "result": 23.2, "unit": "µM"}, {"measurement": "TGI", "setting": "SK-OV-3 ovarian", "result": "> 50", "unit": "µM"}, {"measurement": "GI50", "setting": "MDA-MB-231 breast", "result": 8.58, "unit": "µM"}, {"measurement": "TGI", "setting": "MDA-MB-231 breast", "result": 36, "unit": "µM"}, {"measurement": "GI50", "setting": "NCI-H226 lung", "result": 17.1, "unit": "µM"}, {"measurement": "TGI", "setting": "NCI-H226 lung", "result": "> 50", "unit": "µM"}, {"measurement": "GI50", "setting": "CAKI-1 renal", "result": 15.8, "unit": "µM"}, {"measurement": "TGI", "setting": "CAKI-1 renal", "result": 37.7, "unit": "µM"}, {"measurement": "GI50", "setting": "UO-31 renal", "result": 13.5, "unit": "µM"}, {"measurement": "TGI", "setting": "UO-31 renal", "result": "> 50", "unit": "µM"}, {"measurement": "GI50", "setting": "SK-MEL-5 melanoma", "result": 6.99, "unit": "µM"}, {"measurement": "TGI", "setting": "SK-MEL-5 melanoma", "result": 13.9, "unit": "µM"}, {"measurement": "GI50", "setting": "MDA-MB-435", "result": 10.5, "unit": "µM"}, {"measurement": "TGI", "setting": "MDA-MB-435", "result": 25.7, "unit": "µM"}, {"measurement": "GI50", "setting": "NCI-H522 lung", "result": 47.8, "unit": "µM"}, {"measurement": "TGI", "setting": "NCI-H522 lung", "result": "> 50", "unit": "µM"}, {"measurement": "GI50", "setting": "HCT-116 colon", "result": 7.34, "unit": "µM"}, {"measurement": "TGI", "setting": "HCT-116 colon", "result": 15, "unit": "µM"}, {"measurement": "GI50", "setting": "COLO 205 colon", "result": 11.1, "unit": "µM"}, {"measurement": "TGI", "setting": "COLO 205 colon", "result": 26.9, "unit": "µM"}, {"measurement": "GI50", "setting": "OVCAR-3 ovarian", "result": 22.9, "unit": "µM"}, {"measurement": "TGI", "setting": "OVCAR-3 ovarian", "result": "> 50", "unit": "µM"}, {"measurement": "GI50", "setting": "SR leukemia", "result": 13.4, "unit": "µM"}, {"measurement": "TGI", "setting": "SR leukemia", "result": "> 50", "unit": "µM"}, {"measurement": "GI50", "setting": "786-0 renal", "result": 5.66, "unit": "µM"}, {"measurement": "TGI", "setting": "786-0 renal", "result": 15.7, "unit": "µM"}, {"measurement": "GI50", "setting": "U251 CNS", "result": 12.8, "unit": "µM"}, {"measurement": "TGI", "setting": "U251 CNS", "result": 39.8, "unit": "µM"}, {"measurement": "GI50", "setting": "SW-620 colon", "result": 14.3, "unit": "µM"}, {"measurement": "TGI", "setting": "SW-620 colon", "result": "> 50", "unit": "µM"}, {"measurement": "GI50", "setting": "A549 NSCLC", "result": 19.4, "unit": "µM"}, {"measurement": "TGI", "setting": "A549 NSCLC", "result": "> 50", "unit": "µM"}, {"measurement": "GI50", "setting": "HS 578T breast", "result": 10.4, "unit": "µM"}, {"measurement": "TGI", "setting": "HS 578T breast", "result": 31.3, "unit": "µM"}, {"measurement": "GI50", "setting": "M14 melanoma", "result": 7.37, "unit": "µM"}, {"measurement": "TGI", "setting": "M14 melanoma", "result": 15.1, "unit": "µM"}, {"measurement": "GI50", "setting": "HT29 colon", "result": 7.87, "unit": "µM"}, {"measurement": "TGI", "setting": "HT29 colon", "result": 17.2, "unit": "µM"}]}]}
